Source: patent US10131670B2, “Bicyclic heteroaryl derivatives as CFTR potentiators” (CYSTIC FIBROSIS FOUNDATION THERAPEUTICS, INC., priority 2016, dated 2018)
pEC50: −log10 of the molar value. Counter-ions that a name gives are not always drawn.

Legend:
[1] = target: F508del V470 CFTR (Homo sapiens, UniProt P13569, DEL508-508); test: FRT Ion Flux Assay of F508del CFTR Potentiation; assay type: cell-based; conditions: FRT cells expressing F508del V470 CFTR and halide-sensitive YFP, forskolin 20 uM, 30 min
Sequence of F508del V470 CFTR (P13569 with tags, fused parts or gaps DEL508-508): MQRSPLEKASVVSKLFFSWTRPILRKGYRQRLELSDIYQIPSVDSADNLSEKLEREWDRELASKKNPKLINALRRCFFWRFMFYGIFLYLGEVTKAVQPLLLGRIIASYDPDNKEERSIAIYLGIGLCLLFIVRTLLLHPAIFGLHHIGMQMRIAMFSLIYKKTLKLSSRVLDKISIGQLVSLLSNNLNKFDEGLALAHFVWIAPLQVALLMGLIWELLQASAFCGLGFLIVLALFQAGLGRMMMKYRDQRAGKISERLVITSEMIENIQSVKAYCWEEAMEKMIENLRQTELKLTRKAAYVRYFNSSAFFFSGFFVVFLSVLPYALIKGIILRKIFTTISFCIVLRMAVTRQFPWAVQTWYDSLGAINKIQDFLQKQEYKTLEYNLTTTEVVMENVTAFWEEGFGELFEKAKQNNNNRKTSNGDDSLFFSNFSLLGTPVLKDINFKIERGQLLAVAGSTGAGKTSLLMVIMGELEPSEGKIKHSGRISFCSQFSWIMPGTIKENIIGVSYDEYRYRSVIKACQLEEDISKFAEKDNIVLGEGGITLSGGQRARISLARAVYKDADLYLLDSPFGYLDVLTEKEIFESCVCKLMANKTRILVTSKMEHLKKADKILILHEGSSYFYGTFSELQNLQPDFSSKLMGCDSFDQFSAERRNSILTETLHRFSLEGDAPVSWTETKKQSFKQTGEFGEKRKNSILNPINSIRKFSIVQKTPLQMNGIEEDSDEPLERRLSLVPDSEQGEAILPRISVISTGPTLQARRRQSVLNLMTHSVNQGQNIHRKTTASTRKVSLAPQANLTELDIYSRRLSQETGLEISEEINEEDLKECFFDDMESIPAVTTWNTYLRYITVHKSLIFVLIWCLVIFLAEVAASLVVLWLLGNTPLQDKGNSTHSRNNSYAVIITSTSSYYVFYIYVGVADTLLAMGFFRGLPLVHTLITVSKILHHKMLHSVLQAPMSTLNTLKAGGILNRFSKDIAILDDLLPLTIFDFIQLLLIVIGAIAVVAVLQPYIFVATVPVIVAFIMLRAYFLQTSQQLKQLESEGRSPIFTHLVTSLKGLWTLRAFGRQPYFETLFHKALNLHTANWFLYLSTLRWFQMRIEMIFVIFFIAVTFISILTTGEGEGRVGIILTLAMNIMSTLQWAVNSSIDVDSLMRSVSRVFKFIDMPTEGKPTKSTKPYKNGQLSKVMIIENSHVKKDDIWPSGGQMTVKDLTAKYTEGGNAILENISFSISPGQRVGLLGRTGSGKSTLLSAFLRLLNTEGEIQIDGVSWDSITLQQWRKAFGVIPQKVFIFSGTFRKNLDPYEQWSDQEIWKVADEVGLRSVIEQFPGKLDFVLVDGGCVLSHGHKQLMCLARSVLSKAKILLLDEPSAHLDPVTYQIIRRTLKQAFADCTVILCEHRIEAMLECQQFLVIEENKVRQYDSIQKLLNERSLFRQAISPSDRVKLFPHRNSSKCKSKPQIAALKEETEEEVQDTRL
Method: FRT Ion Flux Assay of F508del CFTR Potentiation
Fischer rat thyroid (FRT) cell lines stably expressing recombinant F508del V470 CFTR and halide-sensitive yellow fluorescent protein (Pedemonte et al., J. Clin. Invest. 115(9) 2564-71 (2005)) were seeded at 25,000 cells/well in 50 uL/well of culture medium into black-walled, clear bottom tissue-culture-treated 384-well plates (Corning, cat. no. 3712). After one day, the cells were pre-incubated at 27° C./5% CO2 for 16-24 hours. The cells were then washed with dPBS and treated with forskolin (20 uM) and test compound for 30 min by addition of 20 uL of compound dilution buffer (dPBS containing forskolin and test compound). Plates were loaded into FLIPR384 fluorescence imaging plate reader (Molecular Devices). After an initial fluorescence reading, iodide buffer (25 uL) (composition (in mM): 137 NaI, 1.5 K2PO4, 8.1 NaH2PO4, 2.7 KCl, 0.5 MgCl2, 1 CaCl2) was added and a second fluorescence reading was made after approximately 21 seconds. Data treatment involved division of the second fluorescence reading by the initial fluorescence reading, then scaling of the resulting normalized endpoint fluorescence with respect to the responses for DMSO (0%) and a positive control potentiator (100%).

[2] = target: CFTR (Homo sapiens, UniProt P13569); test: Ussing Chamber Electrophysiology Assay of CFTR Potentiation in CF Bronchial Epithelial Cells; assay type: cell-based; conditions: primary CF hBE cells, short-circuit current, scaled to DMSO (0%) and positive control potentiator (100%)
Source text: Ussing Chamber Electrophysiology Assay of CFTR Potentiation in CF Bronchial Epithelial Cells
Primary cystic fibrosis human bronchial epithelial (CF hBE) cells were expanded and cultured according to published methods (Neuberger et al., Ch. 4 of Cystic Fibrosis, Methods in Molecular Biology vol. 741, pp. 39-54 (2011)). Well-differentiated cells (>30 days at air/liquid interface) on Snapwell filters (Corning Costar, cat. no. 3801) were mounted in Ussing chambers (Physiologic Instruments, Inc., San Diego, Calif.). F508del/F508del cultures were assayed at 27° C. and G551D/F508del cells were assayed at 35° C. HEPES buffered physiological saline (composition (in mM): 137 NaCl, 4 KCl, 1 MgCl2, 1.8 CaCl2, 10 HEPES Na) was used in both apical and basolateral chambers. Chambers were bubbled with air to promote mixing and the voltage was clamped to zero. Amiloride (30 uM), forskolin (10 uM), test compound (4 increasing concentrations), and CFTRinh-172 (20 uM) were added sequentially with 20-25 minutes between additions. Short-circuit currents were acquired and analyzed using LabScribe2. Test compound responses were scaled relative to responses for DMSO (0%) and the maximal response of a positive control potentiator (100%).

Structure (SMILES) | pEC50 [1] | pEC50 [2]
N#Cc1c(-c2cnc(C(F)(F)F)nc2)c2c(N)ncnn2c1Cc1cn(-c2ccccc2F)nn1 [Example 22, 4-amino-7-{[1-(2-fluorophenyl)-1H-1,2,3-triazol-4-yl]methyl}-5-[2-(trifluoromethyl)pyrimidin-5-yl]pyrrolo[2,1-f][1,2,4]triazine-6-carbonitrile] | 7.63 | 7.57
CC(c1cn(-c2ccc(F)cc2F)nn1)c1cc(-c2cnc(C(F)(F)F)nc2)c2c(N)ncnn12 (single isomer, unassigned) [Example 55, 7-{1-[1-(2,4-difluorophenyl)-1H-1,2,3-triazol-4-yl]ethyl}-5-[2-(trifluoromethyl)pyrimidin-5-yl]pyrrolo[2,1-f][1,2,4]triazin-4-amine] | 6.57 | 6.65
CC(c1cn(-c2ccccc2F)nn1)c1c(C#N)c(-c2cnc(C(F)(F)F)nc2)c2c(N)ncnn12 (single isomer, unassigned) [Example 2, 4-amino-7-{1-[1-(2-fluorophenyl)-1H-1,2,3-triazol-4-yl]ethyl}-5-[2-(trifluoromethyl)pyrimidin-5-yl]pyrrolo[2,1-f][1,2,4]triazine-6-carbonitrile] | 8.04 | 7.95
CCC(c1cn(-c2cc(F)ccc2F)nn1)c1c(C#N)c(-c2cnc(C(F)(F)F)nc2)c2c(N)ncnn12 (single isomer, unassigned) [Example 8, 4-amino-7-{1-[1-(2,5-difluorophenyl)-1H-1,2,3-triazol-4-yl]propyl}-5-[2-(trifluoromethyl)pyrimidin-5-yl]pyrrolo[2,1-f][1,2,4]triazine-6-carbonitrile] | 7.76 | 7.89
CCC(c1cn(-c2ccccc2F)nn1)c1cc(-c2cncnc2OC)c2c(N)ncnn12 (stereo not drawn) [Example 83, 7-{1-[1-(2-fluorophenyl)-1H-1,2,3-triazol-4-yl]propyl}-5-(4-methoxypyrimidin-5-yl)pyrrolo[2,1-f][1,2,4]triazin-4-amine] | 7.74 | 7.80
CCC(c1cn(-c2ccc(F)c(F)c2)nn1)c1cc(-c2cnc(C(F)(F)F)nc2)c2c(N)ncnn12 (single isomer, unassigned) [Example 63, 7-{1-[1-(3,4-difluorophenyl)-1H-1,2,3-triazol-4-yl]propyl}-5-[2-(trifluoromethyl)pyrimidin-5-yl]pyrrolo[2,1-f][1,2,4]triazin-4-amine] | 7.53 | 7.71
CCC(c1cn(-c2ccccc2F)nn1)c1cc(-c2cncnc2OC)c2c(N)ncnn12 (single isomer, unassigned) [Example 65, 7-{1-[1-(2-fluorophenyl)-1H-1,2,3-triazol-4-yl]propyl}-5-(4-methoxypyrimidin-5-yl)pyrrolo[2,1-f][1,2,4]triazin-4-amine] | 7.86 | 7.98
CCC(c1cn(-c2ccc(F)cc2F)nn1)c1c(C#N)c(-c2cnc(C(F)(F)F)nc2)c2c(N)ncnn12 (single isomer, unassigned) [Example 7, 4-amino-7-{1-[1-(2,4-difluorophenyl)-1H-1,2,3-triazol-4-yl]propyl}-5-[2-(trifluoromethyl)pyrimidin-5-yl]pyrrolo[2,1-f][1,2,4]triazine-6-carbonitrile] | 7.35 | 7.48
Nc1ncnn2c(Cc3cn(-c4ccccc4F)nn3)nc(-c3ccc(Cl)cc3)c12 [Example 93, 5-(4-Chlorophenyl)-7-{[1-(2-fluorophenyl)-1H-1,2,3-triazol-4-yl]methyl}imidazo[5,1-f][1,2,4]triazin-4-amine trifluoroacetate] | 7.26 | 6.94
CC(c1cn(-c2cc(F)ccc2F)nn1)c1cc(-c2cnc(C(F)(F)F)nc2)c2c(N)ncnn12 (single isomer, unassigned) [Example 98, 7-{1-[1-(2,5-difluorophenyl)-1H-1,2,3-triazol-4-yl]ethyl}-5-[2-(trifluoromethyl)pyrimidin-5-yl]pyrrolo[2,1-f][1,2,4]triazin-4-amine] | 7.59 | 7.70
CCC(c1cnn(-c2ccc(F)cc2F)c1)c1c(C#N)c(-c2cnc(C(F)(F)F)nc2)c2c(N)ncnn12 (single isomer, unassigned) [Example 17, 4-amino-7-{1-[1-(2,4-difluorophenyl)-1H-pyrazol-4-yl]propyl}-5-[2-(trifluoromethyl)pyrimidin-5-yl]pyrrolo[2,1-f][1,2,4]triazine-6-carbonitrile] | 7.87 | 8.52
CCC(c1cn(-c2ccc(F)cc2F)nn1)c1c(C#N)c(-c2cnc(C(F)(F)F)nc2)c2c(N)ncnn12 (single isomer, unassigned) [Example 6, 4-amino-7-{1-[1-(2,4-difluorophenyl)-1H-1,2,3-triazol-4-yl]propyl}-5-[2-(trifluoromethyl)pyrimidin-5-yl]pyrrolo[2,1-f][1,2,4]triazine-6-carbonitrile] | 8.30 | 8.26
CCC(c1cn(-c2ccccc2)nn1)n1nc(-c2cnc(C(F)(F)F)nc2)c2c(N)ncnc21 (single isomer, unassigned) [Example 94, 1-[1-(1-phenyl-1H-1,2,3-triazol-4-yl)propyl]-3-[2-(trifluoromethyl)pyrimidin-5-yl]-1H-pyrazolo[3,4-d]pyrimidin-4-amine] | 7.30 | 7.13
CCC(c1cnn(C(C)C)c1)c1c(C#N)c(-c2cnc(C(F)(F)F)nc2)c2c(N)ncnn12 (single isomer, unassigned) [Example 10, 4-amino-7-{1-[1-(propan-2-yl)-1H-pyrazol-4-yl]propyl}-5-[2-(trifluoromethyl)pyrimidin-5-yl]pyrrolo[2,1-f][1,2,4]triazine-6-carbonitrile] | 7.02 | 7.32

Further molecules by rising pEC50 [1], results first:

pEC50 [1] | pEC50 [2] | Structure (SMILES)
8.18 | 8.70 | CCC(c1cnn(-c2ccccc2F)c1)c1c(C#N)c(-c2cnc(C(F)(F)F)nc2)c2c(N)ncnn12 (single isomer, unassigned) [Example 14, 4-amino-7-{1-[1-(2-fluorophenyl)-1H-pyrazol-4-yl]propyl}-5-[2-(trifluoromethyl)pyrimidin-5-yl]pyrrolo[2,1-f][1,2,4]triazine-6-carbonitrile]
8.32 | 8.82 | CCC(c1cnn(-c2ccccc2F)c1)n1nc(-c2cnc(C(F)(F)F)nc2)c2c(N)ncnc21 (single isomer, unassigned) [Example 87, 1-{1-[1-(2-fluorophenyl)-1H-pyrazol-4-yl]propyl}-3-[2-(trifluoromethyl)pyrimidin-5-yl]-1H-pyrazolo[3,4-d]pyrimidin-4-amine]
8.47 | 8.70 | CCC(c1cn(-c2ccc(F)cc2F)nn1)c1cc(-c2cnc(C(F)(F)F)nc2)c2c(N)ncnn12 (single isomer, unassigned) [Example 60, 7-{1-[1-(2,4-difluorophenyl)-1H-1,2,3-triazol-4-yl]propyl}-5-[2-(trifluoromethyl)pyrimidin-5-yl]pyrrolo[2,1-f][1,2,4]triazin-4-amine]
8.50 | 9.18 | CC(c1cnn(-c2ccc(F)cc2F)c1)c1c(C#N)c(-c2cnc(C(F)(F)F)nc2)c2c(N)ncnn12 (single isomer, unassigned) [Example 21]
9.21 | 9.38 | CC(c1cnn(-c2ccccc2F)c1)c1c(C#N)c(-c2cnc(C(F)(F)F)nc2)c2c(N)ncnn12 (single isomer, unassigned) [Example 13, 4-amino-7-{1-[1-(2-fluorophenyl)-1H-pyrazol-4-yl]ethyl}-5-[2-(trifluoromethyl)pyrimidin-5-yl]pyrrolo[2,1-f][1,2,4]triazine-6-carbonitrile]
9.25 | 9.38 | CCC(c1cnn(-c2ccc(F)cc2F)c1)c1c(C#N)c(-c2cnc(C(F)(F)F)nc2)c2c(N)ncnn12 (single isomer, unassigned) [Example 16, 4-amino-7-{1-[1-(2,4-difluorophenyl)-1H-pyrazol-4-yl]propyl}-5-[2-(trifluoromethyl)pyrimidin-5-yl]pyrrolo[2,1-f][1,2,4]thazine-6-carbonitrile]
9.25 | 9.70 | CCC(c1cnn(-c2ccccc2F)c1)c1c(C#N)c(-c2cnc(C(F)(F)F)nc2)c2c(N)ncnn12 (single isomer, unassigned) [Example 15, 4-amino-7-{1-[1-(2-fluorophenyl)-1H-pyrazol-4-yl]propyl}-5-[2-(trifluoromethyl)pyrimidin-5-yl]pyrrolo[2,1-f][1,2,4]triazine-6-carbonitrile]
